US20080076788A1, “SOLID FORMS OF (3'-CHLOROBIPHENYL-4-YL)(1-(PYRIMIDIN-2-YL)PIPERIDIN-4-YL)METHANONE AND METHODS OF THEIR USE” (priority 2006, published 2008)

Tests used:
[1] = test system: mice; assay: Learning and memory in mice after administration of the compound; type: in vivo; settings: administered to mice
[2] = biological target: T1, Na^+-dependent proline transporter (Homo sapiens, UniProt Q99884); settings: statement in words, refers to U.S. patent application Ser. Nos. 11/433,057 and 11/433,626; cited from earlier work
T1 sequence (Q99884 1-636): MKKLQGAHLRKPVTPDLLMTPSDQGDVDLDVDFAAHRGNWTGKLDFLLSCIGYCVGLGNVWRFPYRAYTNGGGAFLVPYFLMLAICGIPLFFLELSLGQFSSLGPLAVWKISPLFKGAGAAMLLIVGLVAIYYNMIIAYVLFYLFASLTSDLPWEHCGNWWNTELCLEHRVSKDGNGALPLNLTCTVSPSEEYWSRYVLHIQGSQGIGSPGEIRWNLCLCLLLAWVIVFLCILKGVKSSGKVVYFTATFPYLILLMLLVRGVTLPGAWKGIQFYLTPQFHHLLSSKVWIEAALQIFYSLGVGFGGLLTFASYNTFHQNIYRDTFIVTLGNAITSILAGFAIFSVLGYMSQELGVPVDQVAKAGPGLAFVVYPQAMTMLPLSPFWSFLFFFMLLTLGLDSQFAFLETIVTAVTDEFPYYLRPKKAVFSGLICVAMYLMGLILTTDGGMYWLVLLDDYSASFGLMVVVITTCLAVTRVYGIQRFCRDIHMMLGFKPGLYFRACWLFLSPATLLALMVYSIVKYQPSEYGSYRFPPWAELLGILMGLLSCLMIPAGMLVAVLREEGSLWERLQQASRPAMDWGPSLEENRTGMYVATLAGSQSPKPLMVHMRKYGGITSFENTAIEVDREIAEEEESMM

## O=C(c1ccc(-c2cccc(Cl)c2)cc1)C1CCN(c2ncccn2)CC1 [(3′-chlorobiphenyl-4-yl)(1-(pyrimidin-2-yl)piperidin-4-yl)methanone]
[1]
  effect on learning and memory: increase learning and memory
other
  melting point: ~ 117 °C
[2]
  inhibition of the Na+-dependent proline transporter: inhibitor
